Patent US20060122185A1, “Bicyclic inhibitors of Rho kinase” (priority 2004, published 2006)

biological target: ROCK (Homo sapiens, UniProt Q13464); experiment: ROCK radioactive enzyme assay (33P); type: biochemical; settings: 13 μM [γ-33P] ATP, 27 μM MBP, 5 nM ROCK, room temperature
Protocol: Compounds are screened for their ability to inhibit ROCK using a standard radioactive enzyme assay. Assays are carried out in a solution containing 100 mM HEPES (pH 7.5), 10 mM MgCl2, 25 mM NaCl, 2 mM DTT and 1.5% DMSO. Final substrate concentrations in the assay are 13 μM [γ-^33P] ATP (25 mCi ^33P ATP/mmol ATP, Perkin Elmer, Cambridge, Mass./Sigma Chemicals, St Louis, Mo.) and 27 μM Myelin Basic Protein (MBP). Final enzyme concentration in the assay is 5 nM ROCK. Assays are carried out at room temperature. 1.5 μl of DMSO stock containing serial dilutions of the compound of the present invention (concentrations ranging from 10 μM to 2.6 nM) is placed in a 96 well plate. 50 μl of Solution 1 (100 mM HEPES (pH 7.5), 10 mM MgCl2, […] [γ-^33P] ATP) is added to the plate. The reaction is initiated by addition of 50 μl of Solution 2 (100 mM HEPES (pH 7.5), 10 mM MgCl2, 4 mM DTT, […] and 10 nM ROCK). After 2 hours the reaction is quenched with 50 μL of 30% trichloroacetic acid (TCA, Fisher) containing 9 mM ATP. Transfer of 140 μL of the quenched reaction to a glass fiber filter plate (Corning, Cat. No. 3511) is followed by washing 3 times with 5% TCA. 50 μL of Optima Gold scintillation fluid (Perkin Elmer) is added and the plates are counted on a Top Count (Perkin Elmer). After removing mean background values for all of the data points the data is fit using Prism software to obtain a Ki(app).
(§1) Table 3 depicts enzyme inhibition data (Ki) for certain exemplary compounds. Compound numbers in Table 3 correspond to those compounds depicted in Table 1.

Chain of ROCK (Q13464 6-553): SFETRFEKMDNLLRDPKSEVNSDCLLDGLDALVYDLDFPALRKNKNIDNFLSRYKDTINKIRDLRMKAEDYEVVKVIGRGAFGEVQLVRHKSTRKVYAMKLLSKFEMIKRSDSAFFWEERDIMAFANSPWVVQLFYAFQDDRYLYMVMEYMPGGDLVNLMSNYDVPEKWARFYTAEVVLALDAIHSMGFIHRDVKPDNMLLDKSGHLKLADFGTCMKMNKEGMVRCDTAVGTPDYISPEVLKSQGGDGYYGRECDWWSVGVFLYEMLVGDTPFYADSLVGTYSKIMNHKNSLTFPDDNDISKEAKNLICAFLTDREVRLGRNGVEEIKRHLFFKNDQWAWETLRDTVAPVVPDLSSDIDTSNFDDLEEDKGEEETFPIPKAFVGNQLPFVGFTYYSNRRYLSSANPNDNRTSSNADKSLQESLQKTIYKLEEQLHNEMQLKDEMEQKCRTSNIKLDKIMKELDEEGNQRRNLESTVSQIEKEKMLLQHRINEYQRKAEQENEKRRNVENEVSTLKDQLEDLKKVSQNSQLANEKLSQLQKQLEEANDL

Structure (SMILES)	Ki
COc1cccc(CNC(=O)c2cc(-c3n[nH]c4ncccc34)c[nH]2)c1 [Compound 13]	< 500 nM
CS(=O)(=O)Nc1cccc(CC(=O)Nc2nc(-c3n[nH]c4ncccc34)cs2)c1 [Compound 5]	< 500 nM
O=C(NCc1cccc(F)c1)c1cc(-c2n[nH]c3ncccc23)c[nH]1 [Compound 16]	< 500 nM
O=C(NCc1ccc(F)cc1)c1cc(-c2n[nH]c3ncccc23)c[nH]1 [Compound 18]	< 500 nM
CCN(CC)S(=O)(=O)c1cccc(CC(=O)Nc2nc(-c3n[nH]c4ncccc34)cs2)c1 [Compound 4]	< 500 nM
CN(C)S(=O)(=O)c1cccc(CC(=O)Nc2cc(-c3n[nH]c4ncccc34)cs2)c1 [Compound 10, 2-(3-Dimethylsulfamoyl-phenyl)-N-[4-(1H-pyrazolo[3,4-b]pyridin-3-yl)-thiophen-2-yl]-acetamide]	< 500 nM
CS(=O)(=O)Nc1ccc(F)c(CC(=O)Nc2cc(-c3n[nH]c4nccnc34)cs2)c1 [Compound 9, N-(4-(1H-pyrazolo[3,4-b]pyrazin-3-yl)thiophen-2-yl)-2-(5-methsulfonamido-2-fluorophenyl)acetamide]	< 500 nM
CS(=O)(=O)Nc1cccc(CC(=O)Nc2cc(-c3n[nH]c4ncccc34)cs2)c1 [Compound 8, 2-(3-Methanesulfonylamino-phenyl)-N-[4-(1H-pyrazolo[3,4-b]pyridin-3-yl)-thiophen-2-yl]-acetamide]	< 500 nM
O=C(Cc1cccc(OCCCC2CCNCC2)c1)Nc1cc(-c2n[nH]c3ncccc23)cs1 [Compound 7, 2-(3-(3-Piperidin-4-yl-propoxy)-phenyl)-N-[4-(1H-pyrazolo[3,4-b]pyridin-3-yl)-thiophen-2-yl]-acetamide]	< 500 nM
CC(CO)NC(=O)c1cc(-c2n[nH]c3ncccc23)c[nH]1 (stereo not shown) [Compound 12]	500 to 5000 nM
COc1cccc(CC(=O)Nc2nc(-c3n[nH]c4ncccc34)cs2)c1 [Compound 3]	< 500 nM
CS(=O)(=O)Nc1cccc(CNC(=O)c2cc(-c3n[nH]c4ncccc34)c[nH]2)c1 [Compound 11]	< 500 nM
O=C(NCc1ccc2c(c1)OCO2)c1cc(-c2n[nH]c3ncccc23)c[nH]1 [Compound 15]	< 500 nM
O=C(NCc1cccc(OC(F)(F)F)c1)c1cc(-c2n[nH]c3ncccc23)c[nH]1 [Compound 14]	< 500 nM
O=C(Cc1ccccc1)Nc1nc(-c2n[nH]c3ncccc23)cs1 [Compound 2]	< 500 nM
CS(=O)(=O)Nc1cccc(CC(=O)Nc2cc(-c3n[nH]c4nccnc34)cs2)c1 [Compound 20]	< 500 nM
CS(=O)(=O)Nc1ccc(F)c(CC(=O)Nc2cc(-c3n[nH]c4ncccc34)cs2)c1 [Compound 6, 2-(2-Fluoro-5-methanesulfonylamino-phenyl)-N-[4-(1H-pyrazolo[3,4-b]pyridin-3-yl)-thiophen-2-yl]-acetamide]	< 500 nM
O=C(NCC1CCCCC1)c1cc(-c2n[nH]c3ncccc23)c[nH]1 [Compound 17]	< 500 nM

biological target: ROCK I (AA 6-553) (Homo sapiens, UniProt Q13464); experiment: ROCK I coupled enzyme assay (enzyme-linked); type: biochemical; settings: 45 μM ATP, 200 μM peptide, 45 nM ROCK I, 30° C.
Protocol: Compounds are screened for their ability to inhibit ROCK I (AA 6-553) activity using a standard coupled enzyme system (Fox et al. Protein Sci. 7: 2249, 1998). Reactions are carried out in a solution containing 100 mM HEPES (pH 7.5), 10 mM MgCl2, 25 mM NaCl, 2 mM DTT and 1.5% DMSO. Final substrate concentrations in the assay are 45 μM ATP (Sigma Chemicals, St Louis, Mo.) and 200 μM peptide (American Peptide, Sunnyvale, Calif.). Reactions are carried out at 30° C. and 45 nM ROCK I. Final concentrations of the components of the coupled enzyme system are 2.5 mM phosphoenolpyruvate, 350 μM NADH, 30 μg/ml pyruvate kinase and 10 μg/ml lactate dehydrogenase.
as §1

Chain of ROCK I (AA 6-553) (Q13464 6-553): as above

Structure (SMILES)	Ki
O=C(N[C@H](CO)c1ccccc1)c1cc(-c2n[nH]c3ncccc23)c[nH]1 [Compound 1]	< 500 nM
